Results on six compounds are retold here after patent US10517244B2, “Method to develop herbicide-resistant sugar beet plants” (priority 2012, dated 2019).

The structures appear in SMILES notation. Like-named read-outs stand apart in the source and are kept apart here.

Data set [1] relates to sugar beet plants where the tryptophan at position 569 of the ALS enzyme is substituted by a leucine (Line B). Nature of the data set: Greenhouse trial, damage (phytotoxicity) rating after ALS inhibitor treatment, Line B. The note with it: day 14 after application at stage BBCH 14; scale 0% no damage to 100% completely killed; g/ha per herbicide. It is filed as in vivo, Beta vulgaris L. ssp. vulgaris. The source says: (§1) Uwe Meier, Biologische Bundesanstalt für Land und Forstwirtschaft. Subsequently, the resulting separate groups of sugar beet plants were each individually treated with an ALS inhibitor (ALS-in) in the amounts (g/ha) indicated in Table 2.
(§2) On day 14 after application of the respective ALS inhibitor, the damage (i.e. the phytotoxicity) for each sugar beet plant was rated on a scale from 0% (i.e. no damage, no phytotoxicity) to 100% (i.e. the plants were completely killed).

Data set [2] deals with sugar beet plants where the proline at position 188 of the ALS enzyme is substituted by a serine (Line C). Nature of the data set: Greenhouse trial, damage (phytotoxicity) rating after ALS inhibitor treatment, Line C. Type of data set: in vivo, Beta vulgaris L. ssp. vulgaris. The settings on record: day 14 after application at stage BBCH 14; scale 0% no damage to 100% completely killed; g/ha per herbicide.
Description: as §1, §2

Data set [3] relates to sugar beet plants comprising SEQ.ID.NO:3 and SEQ.ID.NO:5 on two different alleles (Line A). Nature of the data set: Greenhouse trial, damage (phytotoxicity) rating after ALS inhibitor treatment, Line A. It is filed as in vivo, Beta vulgaris L. ssp. vulgaris. How it is done: Mutated sugar beet plants comprising SEQ.ID.NO:3 and SEQ.ID.NO:5 (on two different alleles) according to the present invention (as described in Example 4 above, “Line A”) were treated with different ALS inhibitors in direct comparison with sugar beet plants where the tryptophan at position 569 of the encoded ALS enzyme is substituted by a leucine (“Line B”), sugar beet plants described in WO 98/02527 where the proline at position 188 of the encoded ALS enzyme is substituted by a serine (“Line C”), and traditional variety (wild-type) sugar beet plants not having a mutation at positions 569 and 188 (“Line WT”).
Several groups of seeds of the four different mentioned sugar beet plants were sown separately in the greenhouse and grew up to stage BBCH 14 for Beta vulgaris L. ssp. vulgaris (i.e. 4 leaves (the second pair) unfolded) according to the monographie “Entwicklungsstadien mono-und dikotyler Pflanzen”, 2nd edition, 2001, ed. Uwe Meier, Biologische Bundesanstalt für Land und Forstwirtschaft. Subsequently, the resulting separate groups of sugar beet plants were each individually treated with an ALS inhibitor (ALS-in) in the amounts (g/ha) indicated in Table 2.
as §2
Additionally, typical early phenotypes of each sugar beet plants were inspected after treatment with a mixture comprising thiencarbazone-methyl and foramsulfuron.

The test system of data set [4] is traditional variety (wild-type) sugar beet plants (Line WT). Nature of the data set: Greenhouse trial, damage (phytotoxicity) rating after ALS inhibitor treatment, Line WT. It is filed as in vivo, Beta vulgaris L. ssp. vulgaris. The note with it: day 14 after application at stage BBCH 14; scale 0% no damage to 100% completely killed; g/ha per herbicide.
Description: as §1, §2

The subject of data set [5] is stomatal guard cell protoplasts. Nature of the data set: Protoplasts viability under mutagenesis treatment. It is filed as cell-based, sugar beet. The settings on record: treatment of more than 0.2% EMS. The source says:
Possibly, this method further comprises the step of adding a mutagen agent to the culture of the isolated stomatal guard cell protoplasts.
Suitable mutagen agents are physical (such as UV or X-ray) exposure or exposure to chemical agents (such as Ethyl Methane Sulfonate (EMS), for instance at 0.05%, 0.1%, 0.15%, 0.2% or even at 2.5%).

Data set [6] relates to sugar beet mutant with proline at position 188 of ALS substituted by a serine. The settings on record: at the necessary dose rate; WO 98/02527 mutant; cited from earlier work.
Data set [7] concerns regenerated sugar beets having the mutated SEQ.ID.NO:3 (heterozygote). Type of data set: in vivo, sugar beet. The note with it: Foramsulfuron 12.5 g/ha, amidosulfuron 15 g/ha, iodosulfuron 3.5 g/ha, thiencarbazone-methyl 7.5 g/ha, up to 3 applications. From the text: (§3) The inventors compared the behaviour of regenerated sugar beets having the mutated SEQ.ID.NO:3 (heterozygote for this mutation) and a wild-type (naive) sugar beet commercial variety.

Data set [8] concerns homozygote 569/569 mutant sugar beet. The note with it: WO 2012/049268; cited from earlier work.
In data set [9] the test system is dual mutant plant comprising SEQ.ID.NO:3 and SEQ.ID.NO:5 (NCIMB 42050). Type of data set: in vivo, sugar beet. The settings on record: even when put in composition with organic compounds; compatible with field application. The source says:
The inventors then developed a mutated sugar beet plant comprising SEQ.ID.NO:3 and SEQ.ID.NO:5 (on two different alleles). Such resulting dual mutant has been deposited under the Budapest Treaty under NCIMB 42050. A plant comprising both SEQ.ID.NO:3 and SEQ.ID.NO:5 can be generated by relying on several techniques, including, for instance, a subsequent mutagenesis step applied to the single mutant NCIMB 42051.
The inventors then compared the resistance of this dual mutant plant (a mutation in one allele at amino acid 569 and a mutation in the other allele at amino acid 188) with the single mutant (a mutation at position 569) sugar beet.

Data set [10] concerns wild-type (naive) sugar beet commercial variety. Nature of the data set: ALS inhibitor treatment of wild-type sugar beets (Example 3). It is filed as in vivo. The note with it: Foramsulfuron 12.5 g/ha, amidosulfuron 15 g/ha, iodosulfuron 3.5 g/ha, thiencarbazone-methyl 7.5 g/ha.
Description: as §3

[11] abbreviates: day 14 after application at stage BBCH 14, scale 0% no damage to 100% completely killed, g/ha per herbicide.

For `COc1cc(OC)n2nc(S(=O)(=O)Nc3c(Cl)ccc(C)c3Cl)nc2n1` [Metosulam], the “damage (phytotoxicity) average rating, Line B” value (“damage … Line B” below) in [1] came to 40.6%. In data set [2], the “damage (phytotoxicity) average rating, Line C” value (“damage … Line C” for short) turned out to be 69.4%. The “damage (phytotoxicity) average rating, Line A” value (from here on “damage … Line A”) in [3] (setting [11]) is reported as 13.1%. The “damage (phytotoxicity) average rating, Line WT” value (from here on “damage … Line WT”) in data set [4] turned out to be 79.4%.

In the case of `CCOS(C)(=O)=O` [EMS, Ethyl Methane Sulfonate], the protoplasts viability entry in data set [5] is “detrimentally affected”.

In the case of `COc1cc(OC)nc(NC(=O)NS(=O)(=O)c2cc(NC=O)ccc2C(=O)N(C)C)n1` [Foramsulfuron], the “damage … Line B” value in [1] stood at 45.6%. The “phytotoxicity in field trials on proline 188 serine mutant” value in [6] is “some phytotoxicity”. Further, the “resistance of the (heterozygote) mutated variety to the herbicide” value in data set [7] is “good resistance”; in data set [7] (listed as foramsulfuron) it was “best resistance”. Besides, in data set [2], the “damage … Line C” value is 77.5%. Also, the “resistance of homozygote 569/569 mutant in field trials” value in data set [8] is “good resistance”. Moreover, the “damage … Line A” value in [3] (setting [11]) was 26.9%. For the same compound, the “damage … Line WT” value in data set [4] was 80.0%.

As for `COC(=O)c1csc(C)c1S(=O)(=O)NC(=O)n1nc(OC)n(C)c1=O` [Thiencarbazone-methyl], the “damage … Line B” value in [1] is 35.6%. In [7], the “resistance of the (heterozygote) mutated variety to the herbicide” value is reported as “about the same level of resistance as for iodosulfuron”. Further, the “resistance of the dual mutant plant line to the herbicide” value in data set [9] is given as “good resistance”. The “damage … Line C” value in data set [2] is given as 37.5%. For the same compound, in data set [10], the “sensitivity of the wild-type (naive) plant to the herbicide” value is listed as “very sensitive”. Moreover, the “damage … Line A” value in data set [3] (setting [11]) worked out at 8.1%. Besides, the “damage … Line WT” value in [4] was determined as 84.4%.

In the case of `COc1cc(OC)nc(NC(=O)NS(=O)(=O)N(C)S(C)(=O)=O)n1` [Amidosulfuron], in data set [1], the “damage … Line B” value is reported as 37.5%. The “resistance of the (heterozygote) mutated variety to the herbicide” value in [7] was “same level of resistance”. In addition, the “resistance of the dual mutant plant line to the herbicide” value in [9] is reported as “good resistance”. Moreover, in [2], the “damage … Line C” value is 51.9%. Further, in data set [3] (in vivo), the “damage … Line A” value worked out at 6.3%. For the same compound, in [4], the “damage … Line WT” value was 73.1%.

With `COc1cc(OC)nc(Oc2cccc(Oc3nc(OC)cc(OC)n3)c2C(=O)[O-])n1.[Na+]` [Bisbyribac-Na], in data set [1], the “damage … Line B” value worked out at 38.1%. Moreover, in data set [2], the “damage … Line C” value is on record as 71.7%. In addition, the “damage … Line A” value in data set [3] (setting [11]) turned out to be 17.5%. In addition, the “damage … Line WT” value in [4] is given as 80.0%.
